Consider two compounds from paper PMC6556870 (European Journal of Pharmaceutical Sciences, 2019).

A short description of one data set: in vivo. The following applies: rat, iv. As for the experimental part:
(§1) Fifteen male Han Wistar rats were obtained from Charles River Laboratories, Margate, UK. Animals were all in the target weight range of 163 to 215 g at dosing. Diet was removed at the end of the working day prior to each dose occasion, and returned 4 h after dosing.
(§2) Each animal received a single administration (Table 2). PO doses were administered by gavage at a nominal dose volume of 5 ml/kg. IV doses were administered via a lateral tail vein, at a nominal dose volume of 2 ml/kg, as a bolus injection. Body weights were recorded the day after arrival and before dose administration and used for calculation of doses. Samples of blood (nominally 150 μl) were collected from the jugular vein of each animal. For PO dosing this was done at 0.25, 0.5, 1, 2, 4, 6, 8 and 24 h post dose. For IV dosing this was at 0.016, 0.083, 0.5, 1, 2, 4, 8 and 24 h post dose. The actual blood collection time was used in the subsequent PK data analysis. Blood was collected into tubes containing the K2EDTA anticoagulant and stored at room temperature. Blood was centrifuged (1500g, 10 min, 4 °C) to produce plasma for analysis and residual blood cells were discarded.
Transfer of a 10 μl aliquot into a clean 2 ml […] collection plate • 2. Addition of 25 μl I-B (500 ng/ml). Addition of 25 μl methanol to all blanks • 3. Vortex mix plate (ca. 1 min) • 4. Addition of 80 μl methanol to all wells • 5. Vortex mix plate (ca. 2 min) • 6. Centrifuge 2000g plate for 10 min at room temperature • 7. Transfer 40 μl of supernatant to a clean 1.2 ml 96-well collection plate • 8. Dilute with 160 μl 10 mM of ammonium acetate:ammonium hydroxide (100:0.5 v/v) solution • 9. Vortex mix plate (ca. 2 min) • 10. Complete analysis by LC/MS-MS.

Another data set relates to humans. On the set-up: method as in Knip et al., 2000. To be noted: human adults, orally; ref Knip et al., 2000; cited from earlier work.
For the next data set, the system named is rats. The following applies: rat, in vivo, cited from earlier work.
For the next data set, the system named is Male Han Wistar rats. In words: Clinical signs / tolerability after single IV or PO administration. As for the experimental part:
as §1, §2
The following results were calculated for each group.

In the case of `NC(=O)c1cccnc1` [NA, Nicotinamide, reference compound], in the data set “in vivo” (male, Han Wistar), the “time by which agent is completely cleared / plasma level returns to baseline” value is given as no more than 24 h. In “in vivo” (male, Han Wistar, 120 mg/kg), this compound registered an AUC(0-inf) of 774 µg·h/mL, an AUC(0-t) of 573 µg·h/mL, a C0 of 178 µg/mL and a maximum concentration (Cmax) of 168 µg/mL. In the data set “in vivo” (male, Han Wistar, 120 mg/kg), the Vd was found to be 0.911 L/kg and the clearance is 2.72 mL/min/kg. The same compound had a half-life in “in vivo” (male, Han Wistar, 120 mg/kg, t½) of 4 h. Further, the “adult dose at which NA is a safe therapy” value in the data set with humans was “up to 10 g/day”. Also, the “safe dose in rats, IP injection” value with rats (ip) is given as 1000 mg/kg. Further, the “safe dose in rats, subcutaneous injection” value with rats (sc) is reported as 750 mg/kg. Also, the “clinical signs associated with administration” value in the data set with Male Han Wistar rats (IV or PO, doses up to 120 mg/kg, fifteen male rats) was “No clinical signs”.
As to `[2H]c1cc([2H])c(C(N)=O)cn1` [d2-NA, 4,6-d2-Nicotinamide], in “in vivo”, the “time by which agent is completely cleared / plasma level returns to baseline” value is listed as no more than 24 h. Moreover, in the data set “in vivo” (20 mg/kg), the C0 is given as 28,700 ng/ml, the Cl turned out to be 9.77 mL/min/kg and the Vz was determined as 0.691 L/kg. In addition, in “in vivo” (60 mg/kg), the “AUC(0–t)” value is 196,000 h·ng/ml, the “AUC(0–∞)” value is recorded as 197,000 h·ng/ml, the C0 is on record as 82,700 ng/ml and the Cl came to 5.12 mL/min/kg. In addition, in “in vivo” (60 mg/kg), the Cmax was 79,400 ng/ml, the Vz amounted to 0.963 L/kg and the t½ is listed as 2.23 h. In addition, in the data set “in vivo” (120 mg/kg), the C0 was 172,000 ng/ml, the Cl turned out to be 4.37 mL/min/kg and the Vz was 0.877 L/kg. For the same compound, the tolerability result in the data set with Male Han Wistar rats (regardless of route of administration (IV, PO), 20, 80 and 120 mg/kg, rat) is listed as “well tolerated”.
